{"source": "patent US10517296B2", "about": "“Insect pest control material” ([…] Control Consortium, priority 2015, dated 2019)", "key": {"[1]": {"test_system": "Anopheles gambiae VK7-strain", "test": "Basic insecticidal activity, topical application method, pyrethroid-resistive strain (Test Example 3)", "type": "in vivo", "conditions": "for 50% Lethal Dose (LD50): pyrethroid-resistive female adult Anopheles gambiae VK7-strain, topical application, mortality after 24 hours; for Relative Efficacy: ratio of LD50 values relative to Deltamethrin (=1), VK7-strain", "description": "(§1) The basic insecticidal activity of the present compound was examined using a topical application method. Various concentrations of acetone solutions of the present compound were previously prepared. […] After the treatment, the female adults of Cancer Vieja Madara mosquito were moved into a plastic cup (having a diameter of 9 cm and a height of about 4.5 cm), and was fed with 5% sugar water. The mortality after 24 hours was examined. The number of the tested female adults of Cancer Vieja Madara mosquito was 10 heads per each one concentration in two replicate experiments. The 50% lethal dose (the LD50 value) of the present compound was calculated from the test result using probit method. The same experiment was conducted using Deltamethrin as a control. The lower 50% lethal dose of a compound means the higher basic insecticidal activity of the compound. The ratio of the LD50 value of the present compound relative to the LD50 value of Deltamethrin was calculated to acquire the relative efficacy of the present compound to Deltamethrin.\nThe basic insecticidal activity of each of the present compound and Deltamethrin was examined using the same method as that used in Test Example 1. Here the tested female adults of Cancer Vieja Madara mosquito were pyrethroid-resistive female adults of Cancer Vieja Madara mosquito (Anopheles gambiae VK7-strain), and the number of the tested insects was 10 heads per each one concentration in two replicate experiments. The ratio of the LD50 value of the present compound relative to the LD50 value of Deltamethrin was calculated to acquire the relative efficacy of the present compound to Deltamethrin."}, "[2]": {"test_system": "Anopheles gambiae Kisumu-strain", "test": "Basic insecticidal activity, topical application method (Test Example 1)", "type": "in vivo", "conditions": "for 50% Lethal Dose (LD50): female adult Anopheles gambiae Kisumu-strain, topical 0.3 μL acetone solution, mortality after 24 hours, probit method; for Relative Efficacy: ratio of LD50 values relative to Deltamethrin (=1), Kisumu-strain", "description": "as §1"}}, "data": [{"smiles": "CC1(C)[C@H](C(=O)O[C@H](C#N)c2cccc(Oc3ccccc3)c2)[C@@H]1C=C(Br)Br", "note": "[Deltamethrin]", "values": [{"measurement": "50% Lethal Dose (LD50)", "setting": "[1]", "result": 0.00104, "unit": "μg/female"}, {"measurement": "Relative Efficacy", "setting": "[1]", "result": 1}, {"measurement": "50% Lethal Dose (LD50)", "setting": "[2]", "result": 0.000094, "unit": "μg/female"}, {"measurement": "Relative Efficacy", "setting": "[2]", "result": 1}]}, {"smiles": "CCc1ncnc(NCCc2ccc(C(F)(F)F)cc2)c1Cl", "note": "[The present compound, 5-chloro-4-ethyl-6-[2-(4-trifluoromethylphenyl)ethylamino]pyrimidine]", "values": [{"measurement": "50% Lethal Dose (LD50)", "setting": "[1]", "result": 0.01833, "unit": "μg/female"}, {"measurement": "Relative Efficacy", "setting": "[1]", "result": 0.05674}, {"measurement": "50% Lethal Dose (LD50)", "setting": "[2]", "result": 0.0094, "unit": "μg/female"}, {"measurement": "Relative Efficacy", "setting": "[2]", "result": 0.0100}]}]}
